Results from patent US7932284B2, “Indole sulfonamide modulators of progesterone receptors” (Eli Lilly and Company, priority 2006, dated 2011).

Columns and labels:
[1] = biological target: T1, human AR (androgen receptor) (Homo sapiens, UniProt P10275); test: AR competition binding assay (HEK293 cell lysate); conditions: 0.36 nM 3H-methyltrienolone, 293-AR lysate
T1 construct: expressed in transfected cells; host or cells: HEK293
T1 sequence (P10275 1-920): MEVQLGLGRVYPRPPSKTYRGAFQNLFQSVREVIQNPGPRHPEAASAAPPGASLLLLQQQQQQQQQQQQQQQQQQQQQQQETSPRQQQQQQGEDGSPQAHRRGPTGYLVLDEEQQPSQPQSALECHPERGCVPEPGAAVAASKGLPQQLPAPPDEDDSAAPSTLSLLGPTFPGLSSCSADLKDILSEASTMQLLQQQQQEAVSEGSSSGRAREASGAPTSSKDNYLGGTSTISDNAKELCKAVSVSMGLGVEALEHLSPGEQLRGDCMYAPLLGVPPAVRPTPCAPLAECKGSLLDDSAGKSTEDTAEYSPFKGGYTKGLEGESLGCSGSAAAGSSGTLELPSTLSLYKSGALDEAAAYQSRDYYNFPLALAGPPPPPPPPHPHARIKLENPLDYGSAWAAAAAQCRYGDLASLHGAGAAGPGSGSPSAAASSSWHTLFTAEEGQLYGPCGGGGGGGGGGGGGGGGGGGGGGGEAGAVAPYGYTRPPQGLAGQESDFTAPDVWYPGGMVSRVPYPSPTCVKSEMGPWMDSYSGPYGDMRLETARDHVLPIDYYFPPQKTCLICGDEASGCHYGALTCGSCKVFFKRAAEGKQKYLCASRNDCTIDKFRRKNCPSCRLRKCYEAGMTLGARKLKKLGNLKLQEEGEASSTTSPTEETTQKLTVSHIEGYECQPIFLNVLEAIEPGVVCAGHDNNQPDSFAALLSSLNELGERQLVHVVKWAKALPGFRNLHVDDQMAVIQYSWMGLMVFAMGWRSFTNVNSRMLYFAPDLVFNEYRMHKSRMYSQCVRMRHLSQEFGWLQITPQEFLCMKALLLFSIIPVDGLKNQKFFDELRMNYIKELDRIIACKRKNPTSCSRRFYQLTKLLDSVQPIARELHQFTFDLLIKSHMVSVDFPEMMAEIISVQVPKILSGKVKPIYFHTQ
Description: (§1) Cell lysates from HEK293 cells overexpressing human GR (glucocorticoid receptor), AR (androgen receptor), MR (mineralocorticoid receptor) or PR (progesterone receptor) are used for competition binding assays to determine Ki values for compounds of interest. Briefly, competition binding assays are run in a buffer containing 20 mM HEPES, pH 7.6, 0.2 mM EDTA, 75 mM NaCl, 1.5 mM MgCl2, 20% glycerol, 20 mM sodium molybdate, 0.2 mM DTT, 20 ug/ml aprotinin, and 20 ug/ml leupeptin, using either 0.3 nM ^3H-dexamethasone for GR binding, 0.36 nM ^3H-methyltrienolone for AR binding, 0.25 nM ^3H-aldosterone for MR binding, or 0.29 nM ^3H-methyltrienolone for PR binding, and either 20 ug 293-GR lysate, 22 ug 293-AR lysate, 20 ug 293-MR lysate or 40 ug 293-PR lysate per well. Competing compounds are added at various concentrations in half-log increments. Non-specific binding is determined in the presence of 500 nM dexamethasone for GR binding, 500 nM aldosterone for MR binding, or 500 nM methyltrienolone for AR and PR binding. The binding reaction (140 μl) is incubated overnight at 4° C., then 70 μl of cold charcoal-dextran buffer (containing per 50 ml of assay buffer, 0.75 g of charcoal and 0.25 g of dextran) is added to each reaction. Plates are mixed 8 minutes on an orbital shaker at 4° C. Plates are then centrifuged at 3,000 rpm at 4° C. for 10 minutes. An aliquot of 120 μl of the mixture is transferred to another 96-well plate and 175 μl of Wallac Optiphase “Hisafe 3” scintillation fluid is added to each well. Plates are sealed and shaken vigorously on an orbital shaker. After an incubation of 2 hrs, plates are read in a Wallac Microbeta counter. […] The Kd for ^3H-dexamethasone for GR binding, ^3H-methyltrienolone for AR binding, ^3H-aldosterone for MR binding, or ^3H-methyltrienolone for PR binding, is determined by saturation binding. The IC50 values for compounds are converted to Ki using Cheng-Prusoff equation and the Kd determined by saturation binding assay.

[2] = biological target: T2, human GR (glucocorticoid receptor) (Homo sapiens, UniProt P04150); test: GR competition binding assay (HEK293 cell lysate); conditions: 0.3 nM 3H-dexamethasone, 293-GR lysate
T2 construct: expressed in transfected cells; host or cells: HEK293
T2 sequence (P04150 1-777): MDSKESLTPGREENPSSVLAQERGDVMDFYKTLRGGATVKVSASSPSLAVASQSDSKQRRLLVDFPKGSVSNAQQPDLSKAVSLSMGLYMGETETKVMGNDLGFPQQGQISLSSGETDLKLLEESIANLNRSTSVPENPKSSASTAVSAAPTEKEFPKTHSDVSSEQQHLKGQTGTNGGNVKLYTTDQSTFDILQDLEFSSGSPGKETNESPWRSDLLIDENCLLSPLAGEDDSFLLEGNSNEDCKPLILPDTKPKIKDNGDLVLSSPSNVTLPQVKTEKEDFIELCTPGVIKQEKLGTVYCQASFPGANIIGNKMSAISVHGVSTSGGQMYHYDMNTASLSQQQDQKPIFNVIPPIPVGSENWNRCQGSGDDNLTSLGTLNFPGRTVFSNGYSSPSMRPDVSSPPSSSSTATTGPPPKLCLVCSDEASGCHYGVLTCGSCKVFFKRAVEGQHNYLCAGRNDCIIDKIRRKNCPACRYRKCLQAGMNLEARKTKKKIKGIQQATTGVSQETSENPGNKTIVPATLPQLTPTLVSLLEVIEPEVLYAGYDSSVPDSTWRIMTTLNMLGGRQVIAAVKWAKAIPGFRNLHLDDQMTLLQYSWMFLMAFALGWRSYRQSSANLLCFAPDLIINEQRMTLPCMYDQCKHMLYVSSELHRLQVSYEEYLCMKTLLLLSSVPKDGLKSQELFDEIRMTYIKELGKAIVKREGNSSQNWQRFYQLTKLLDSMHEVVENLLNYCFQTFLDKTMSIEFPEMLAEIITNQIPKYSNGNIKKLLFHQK
Description: as §1

SMILES | Ki [1] | Ki [2]
CS(=O)(=O)Nc1ccc2c(-c3ccc(C#N)cc3)cn(C3CCCC3)c2c1 [Example 63, N-[3-(4-Cyano-phenyl)-1-cyclopentyl-1H-indol-6-yl]-methanesulfonamide] | > 1000 nM | > 1000 nM
CC(C)n1cc(-c2ccc(C#N)cc2)c2ccc(NS(=O)(=O)C(F)(F)F)cc21 [Example 98, N-[3-(4-Cyano-phenyl)-1-isopropyl-1H-indol-6-yl]-C,C,C-trifluoro-methanesulfonamide] | > 1000 nM | > 1000 nM
CC(C)n1cc(-c2ccc(C=NO)cc2)c2ccc(NS(C)(=O)=O)cc21 [Example 94, N-{3-[4-(Hydroxyimino-methyl)-phenyl]-1-isopropyl-1H-indol-6-yl}-methanesulfonamide] | 100 to 500 nM | > 1000 nM
